Experimental data: US20220370416A1, “COMPOUNDS AND METHODS FOR TARGETED DEGRADATION OF KRAS” (Arvinas Operations, Inc., priority 2020, published 2022)

Key:
HiBit-KRAS^G12C [1] = molecular target: T1, HiBit-KRAS^G12C (Homo sapiens, UniProt P01116, G12C); test: HiBit degradation assay in MiaPaCa-2 HiBit-KRas^G12C cells; assay type: cell-based; conditions: 24 hours; for DC50: read-out: KRas^G12C-HiBiT (MiaPaCa; 0.5% DMSO) IC50, MiaPaCa-2 HiBit-KRas^G12C cells; for Dmax: MIA PaCa-2, MiaPaCa-2 HiBit-KRas^G12C cells, maximum degradation
T1 sequence (P01116 1-186 isoform P01116-2 G12C limits assumed): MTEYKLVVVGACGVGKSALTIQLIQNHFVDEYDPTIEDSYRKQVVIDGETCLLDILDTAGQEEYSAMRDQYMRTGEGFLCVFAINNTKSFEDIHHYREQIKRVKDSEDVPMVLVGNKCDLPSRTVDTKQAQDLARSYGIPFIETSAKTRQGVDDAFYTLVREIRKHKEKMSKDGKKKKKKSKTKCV
In short: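 DC50 and Dmax come from 4-parameter fits of DMSO-normalized HiBit luminescence after 24 hours' exposure at 37° C to 10 μM–20 nM compound in 0.1% or 0.5% DMSO. Cells: MiaPaCa-2 carrying one endogenously HiBit-tagged KRAS^G12C allele; concentrations causing ≥50% […] viability loss (alamar blue) excluded.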

HiBit-KRAS^G12C [2] = molecular target: T1, HiBit-KRAS^G12C; test: HiBit degradation assay in SW1573 HiBit-KRas^G12C cells; assay type: cell-based; design: expressed in transfected cells; host or cells: SW1573 (clone E6), modified pcDNA3.1 vector, TK promoter; conditions: 24 hours; for DC50: SW1573 HiBit-KRas^G12C; for Dmax: SW1573, SW1573 HiBit-KRas^G12C
In short: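 HiBit-KRAS G12C degradation was measured after a 24 h compound exposure (titrated 10 μM–20 nM) in engineered SW1573 cells. Lytic HiBit luminescence, expressed relative to DMSO controls, yielded DC50 and Dmax from 4-parameter fits. Concentrations causing ≥50% loss in alamar blue viability were omitted as cytotoxic.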

[3] = read-out: KRas^G12C-HiBiT (SW1573; 0.5% DMSO) IC50***, 0.5% DMSO
[4] = 0.5% DMSO, read-out: KRas^G12C-HiBiT (MiaPaCa; 0.5% DMSO) DMax
[5] = 0.5% DMSO, read-out: KRas^G12C-HiBiT (SW1573; 0.5% DMSO) Dmax**

Q: How did the DC50 (HiBit-KRAS^G12C [1]; 0.5% DMSO) turn out when `C=C(F)C(=O)N1CCN(c2nc(OCCN3CCC(COc4cc([C@@H](C(=O)N5C[C@H](O)C[C@H]5C(=O)N[C@@H](C)c5ccc(-c6scnc6C)cc5)C(C)C)on4)CC3)nc3c(F)c(-c4cc(O)cc5ccccc45)c(Cl)cc23)C[C@@H]1CC#N` [Compound 171, (2S,4R)-1-[(2S)-2-[3-({1-[2-({6-chloro-4-[(3S)-3-(cyanomethyl)-4-(2-fluoroprop-2-enoyl)piperazin-l-yl]-8-fluoro-7-(3-hydroxynaphthalen-1-yl)quinazolin-2-yl}oxy)ethyl]piperidin-4-yl}methoxy)-1,2-oxazol-5-yl]-3-methylbutanoyl]-4-hydroxy-N-[(1S)-1-[4-(4-methyl-1,3-thiazol-5-yl)phenyl]ethyl]pyrrolidine-2-carboxamide] was run?
A: > 1000 nM

Q: What about the DC50 (HiBit-KRAS^G12C [2]; [3]) of the same molecule?
A: > 1000 nM

Q: How did the Dmax (HiBit-KRAS^G12C [1]; [4]) turn out when `C=CC(=O)N1CCN(c2nc(OCCN3CCC(COc4cc([C@H](C(=O)N5C[C@@H](O)C[C@H]5C(=O)N[C@@H](C)c5ccc(-c6scnc6C)cc5)C(C)C)on4)CC3)nc3c(F)c(-c4cc(O)cc5ccccc45)c(Cl)cc23)C[C@@H]1CC#N` (atropisomer, axis not shown) [Compound 106, (2S,4S)-1-[(2R)-2-[3-({1-[2-({6-chloro-4-[(3S)-3-(cyanomethyl)-4-(prop-2-enoyl)piperazin-1-yl]-8-fluoro-7-(3-hydroxynaphthalen-1-yl)quinazolin-2-yl}oxy)ethyl]piperidin-4-yl}methoxy)-1,2-oxazol-5-yl]-3-methylbutanoyl]-4-hydroxy-N-[(1S)-1-[4-(4-methyl-1,3-thiazol-5-yl)phenyl]ethyl]pyrrolidine-2-carboxamide] was run?
A: < 35%

Q: And the DC50 (HiBit-KRAS^G12C [1]; 0.5% DMSO)?
A: < 100 nM

Q: What about the DC50 (HiBit-KRAS^G12C [2]; [3]) of the same molecule?
A: > 1000 nM

Q: With `C=CC(=O)N1CCN(c2nc(OCCN3CCC4(CC3)CN(c3cc([C@H](C(=O)N5C[C@H](O)C[C@H]5C(=O)N[C@@H](C)c5ccc(-c6ccnn6C)cc5)C(C)C)on3)C4)nc3c(F)c(-c4cc(O)cc5ccccc45)c(Cl)cc23)C[C@@H]1CC#N` (atropisomer, axis not shown) [Compound 116, (2S,4R)-1-[(2R)-2-(3-{7-[2-({6-chloro-4-[(3S)-3-(cyanomethyl)-4-(prop-2-enoyl)piperazin-1-yl]-8-fluoro-7-(3-hydroxynaphthalen-1-yl)quinazolin-2-yl}oxy)ethyl]-2,7-diazaspiro[3.5]nonan-2-yl}-1,2-oxazol-5-yl)-3-methylbutanoyl]-4-hydroxy-N-[(1S)-1-[4-(1-methyl-1H-pyrazol-5-yl)phenyl]ethyl]pyrrolidine-2-carboxamide] as the molecule, how does the Dmax (HiBit-KRAS^G12C [1]; [4]) read?
A: > 70%

Q: And the DC50 (HiBit-KRAS^G12C [1]; 0.5% DMSO)?
A: 100 to 1000 nM

Q: What about the Dmax (HiBit-KRAS^G12C [2]; [5]) of the same molecule?
A: > 70%

Q: And the DC50 (HiBit-KRAS^G12C [2]; [3])?
A: < 100 nM

Q: What does the source list for `C=C(F)C(=O)N1CCN(c2nc(OCCN3CCC4(CC3)CN(c3cc([C@H](C(=O)N5C[C@H](O)C[C@H]5C(=O)N[C@@H](C)c5ccc(-c6ccnn6C)cc5)C(C)C)on3)C4)nc3c(F)c(-c4cc(O)cc5ccccc45)c(Cl)cc23)C[C@@H]1CC#N` (atropisomer, axis not shown) [Compound 112, (2S,4R)-1-[(2R)-2-(3-{7-[2-({6-chloro-4-[(3S)-3-(cyanomethyl)-4-(2-fluoroprop-2-enoyl)piperazin-1-yl]-8-fluoro-7-(3-hydroxynaphthalen-1-yl)quinazolin-2-yl}oxy)ethyl]-2,7-diazaspiro[3.5]nonan-2-yl}-1,2-oxazol-5-yl)-3-methylbutanoyl]-4-hydroxy-N-[(1S)-1-[4-(1-methyl-1H-pyrazol-5-yl)phenyl]ethyl]pyrrolidine-2-carboxamide]?
A: Dmax (HiBit-KRAS^G12C [1]; [4]): > 70%; DC50 (HiBit-KRAS^G12C [1]; 0.5% DMSO): 100 to 1000 nM; Dmax (HiBit-KRAS^G12C [2]; [5]): > 70%; DC50 (HiBit-KRAS^G12C [2]; [3]): 100 to 1000 nM

Q: With `C=CC(=O)N1CCN(c2nc(OCCN3CCC(CN(C)c4cc([C@@H](C(=O)N5C[C@H](O)C[C@H]5C(=O)N[C@@H](C)c5ccc(-c6scnc6C)cc5)C(C)C)on4)CC3)nc3c(F)c(-c4cc(O)cc5ccccc45)c(Cl)cc23)C[C@@H]1CC#N` [Compound 144, (2S,4R)-1-[(2S)-2-{3-[({1-[2-({6-chloro-4-[(3S)-3-(cyanomethyl)-4-(prop-2-enoyl)piperazin-1-yl]-8-fluoro-7-(3-hydroxynaphthalen-1-yl)quinazolin-2-yl}oxy)ethyl]piperidin-4-yl}methyl)(methyl)amino]-1,2-oxazol-5-yl}-3-methylbutanoyl]-4-hydroxy-N-[(1S)-1-[4-(4-methyl-1,3-thiazol-5-yl)phenyl]ethyl]pyrrolidine-2-carboxamide] as the molecule, how does the DC50 (HiBit-KRAS^G12C [1]; 0.5% DMSO) read?
A: > 1000 nM

Q: What about the Dmax (HiBit-KRAS^G12C [2]; [5]) of the same molecule?
A: < 35%

Q: What about the DC50 (HiBit-KRAS^G12C [2]; [3]) of the same molecule?
A: 100 to 1000 nM

Q: `C=CC(=O)N1CCN(c2nc(OCCN3CCC(OCCOCC(=O)N[C@H](C(=O)N4C[C@H](O)C[C@H]4C(=O)N[C@@H](C)c4ccc(-c5scnc5C)cc4)C(C)(C)C)CC3)nc3c(F)c(-c4cc(O)cc5ccccc45)c(Cl)cc23)CC1` [Compound 66, (2S,4R)-1-[(2S)-2-[2-(2-{[1-(2-{[6-chloro-8-fluoro-7-(3-hydroxynaphthalen-1-yl)-4-[4-(prop-2-enoyl)piperazin-1-yl]quinazolin-2-yl]oxy}ethyl)piperidin-4-yl]oxy}ethoxy)acetamido]-3,3-dimethylbutanoyl]-4-hydroxy-N-[(1S)-1-[4-(4-methyl-1,3-thiazol-5-yl)phenyl]ethyl]pyrrolidine-2-carboxamide] was tested. Which Dmax (HiBit-KRAS^G12C [1]; 0.1% DMSO, read-out: KRas^G12C-HiBiT (MiaPaCa; 0.1% DMSO) DMax) did it give?
A: < 35%

Q: What about the Dmax (HiBit-KRAS^G12C [1]; [4]) of the same molecule?
A: 35 to 70%

Q: And the Dmax (HiBit-KRAS^G12C [2]; 0.1% DMSO, read-out: KRas^G12C-HiBit (SW1573; 0.1% DMSO) Dmax**)?
A: 35 to 70%

Q: And the Dmax (HiBit-KRAS^G12C [2]; [5])?
A: 35 to 70%

Q: And the DC50 (HiBit-KRAS^G12C [2]; 0.1% DMSO, read-out: KRas^G12C-HIBit (SW1573; 0.1% DMSO) DC50*)?
A: 100 to 1000 nM

Q: How did the Dmax (HiBit-KRAS^G12C [1]; [4]) turn out when `C=CC(=O)N1CCN(c2nc(OC[C@@H]3CCN(CCCOCC(=O)N[C@H](C(=O)N4C[C@H](O)C[C@H]4C(=O)N[C@@H](C)c4ccc(-c5scnc5C)cc4)C(C)(C)C)C3)nc3c(F)c(-c4cc(O)cc5ccccc45)c(Cl)cc23)C[C@@H]1CC#N` [Compound 95, (2S,4R)-1-[(2S)-2-(2-{3-[(3R)-3-[({6-chloro-4-[(3S)-3-(cyanomethyl)-4-(prop-2-enoyl)piperazin-1-yl]-8-fluoro-7-(3-hydroxynaphthalen-1-yl)quinazolin-2-yl}oxy)methyl]pyrrolidin-1-yl]propoxy}acetamido)-3,3-dimethylbutanoyl]-4-hydroxy-N-[(1S)-1-[4-(4-methyl-1,3-thiazol-5-yl)phenyl]ethyl]pyrrolidine-2-carboxamide] was run?
A: > 70%

Q: And the DC50 (HiBit-KRAS^G12C [1]; 0.5% DMSO)?
A: > 1000 nM

Q: What about the Dmax (HiBit-KRAS^G12C [2]; [5]) of the same molecule?
A: > 70%

Q: And the DC50 (HiBit-KRAS^G12C [2]; [3])?
A: 100 to 1000 nM

Q: Which results are given for `C=C(F)C(=O)N1CCN(c2nc(OCCN3CCC(OCCOCC(=O)N[C@H](C(=O)N4C[C@H](O)C[C@H]4C(=O)N[C@@H](C)c4ccc(-c5scnc5C)cc4)C(C)(C)C)CC3)nc3c(F)c(-c4cc(O)cc5ccccc45)c(Cl)cc23)C[C@@H]1CC#N` [Compound 170, (2S,4R)-1-[(2S)-2-{2-[2-({1-[2-({6-chloro-4-[(3S)-3-(cyanomethyl)-4-(2-fluoroprop-2-enoyl)piperazin-1-yl]-8-fluoro-7-(3-hydroxynaphthalen-1-yl)quinazolin-2-yl}oxy)ethyl]piperidin-4-yl}oxy)ethoxy]acetamido}-3,3-dimethylbutanoyl]-4-hydroxy-N-[(1S)-1-[4-(4-methyl-1,3-thiazol-5-yl)phenyl]ethyl]pyrrolidine-2-carboxamide]?
A: Dmax (HiBit-KRAS^G12C [1]; [4]): 35 to 70%; DC50 (HiBit-KRAS^G12C [1]; 0.5% DMSO): 100 to 1000 nM; Dmax (HiBit-KRAS^G12C [2]; [5]): > 70%; DC50 (HiBit-KRAS^G12C [2]; [3]): 100 to 1000 nM

Q: Which Dmax (HiBit-KRAS^G12C [1]; [4]) does the source give for `C=CC(=O)N1CCN(c2nc(OCCN3CCC(COCC(=O)N[C@H](C(=O)N4C[C@H](O)C[C@H]4C(=O)N[C@@H](C)c4ccc(-c5scnc5C)cc4)C(C)(C)C)CC3)nc3c(F)c(-c4cc(O)cc5ccccc45)c(Cl)cc23)[C@@H](C)C1` [Compound 119, (2S,4R)-1-[(2S)-2-(2-{[1-(2-{[6-chloro-8-fluoro-7-(3-hydroxynaphthalen-1-yl)-4-[(2S)-2-methyl-4-(prop-2-enoyl)piperazin-1-yl]quinazolin-2-yl]oxy}ethyl)piperidin-4-yl]methoxy}acetamido)-3,3-dimethylbutanoyl]-4-hydroxy-N-[(1S)-1-[4-(4-methyl-1,3-thiazol-5-yl)phenyl]ethyl]pyrrolidine-2-carboxamide] here?
A: > 70%

Q: And the DC50 (HiBit-KRAS^G12C [1]; 0.5% DMSO)?
A: 100 to 1000 nM

Q: What about the Dmax (HiBit-KRAS^G12C [2]; [5]) of the same molecule?
A: > 70%

Q: What about the DC50 (HiBit-KRAS^G12C [2]; [3]) of the same molecule?
A: 100 to 1000 nM
